Experimental findings from US10617680B2 (CELGENE QUANTICEL RESEARCH, INC., priority 2017, dated 2020) are described below.

In the first assay the target is CBP (Homo sapiens (Human), UniProt Q92793). Briefly: In vitro CBP inhibition (AlphaScreen, biotinylated H4-tetraacetyl peptide).
Sequence of CBP (Q92793 1081-1197): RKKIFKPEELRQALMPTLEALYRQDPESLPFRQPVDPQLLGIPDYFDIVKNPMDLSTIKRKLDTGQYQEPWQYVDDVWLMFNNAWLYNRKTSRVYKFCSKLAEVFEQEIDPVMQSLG
Conditions: not given
The format is binding. As to the method: The CBP-inhibitory activity of the compounds described herein was determined by calculating the IC50. More specifically, CBP inhibitor activity was assayed as follows: CBP was cloned and expressed in E. coli as His-tag protein and purified by Nickel affinity and gel-filtration chromatography. […] CBP binding and inhibition is assessed by monitoring the interaction of biotinylated H4-tetraacetyl peptide (AnaSpec, H4K5/8/12/16(Ac), biotin-labeled) with the target using the AlphaScreen technology (Perkin Elmer). In a 384-well ProxiPlate CBP (50 nM final) was combined with peptide (20 nM final) in 50 mM HEPES (pH 7.3), 10 mM NaCl, 0.25 mM TCEP, 0.1% (w/v) BSA, and 0.005% (w/v) Brij-35 either in the presence of DMSO (final 0.4% DMSO) or compound dilution series in DMSO. After 20 min incubation at room temp, Alpha-streptavidin donor beads and Nickel Chelate acceptor beads were added to a final concentration of 5 μg/mL.
The ability of the compounds disclosed herein to inhibit CBP activity was quantified and the respective IC50 value determined.
As for `Cc1ccccc1-c1cc(=O)n(C)cc1-c1cnn(Cc2ccccc2)c1` [Example 106, 5-(1-benzyl-1H-pyrazol-4-yl)-1-methyl-4-o-tolyl-1H-pyridin-2-one], the IC50 lay in the range of 500 to 5000 nM. Consider `Cn1cc(-c2cnn(Cc3ccccc3)c2)c(-c2ccccc2Cl)cc1=O` [Example 123, 5-(1-benzyl-1H-pyrazol-4-yl)-4-(2-chlorophenyl)-1-methyl-pyridin-2(1H)-one], for which the half-inhibitory concentration (IC50) fell in the range of 500 to 5000 nM.

Still in this assay, the particulars now being: AlphaScreen, Table 29; read-out: CBP IC50.
`CC(C)NC(=O)c1ccn(-c2cc(=O)n(C)cc2-c2cnn(Cc3ccccc3)c2)c1` [Example 82, 1-(5-(1-benzyl-1H-pyrazol-4-yl)-1-methyl-2-oxo-1,2-dihydropyridin-4-yl)-N-isopropyl-1H-pyrrole-3-carboxamide]: the IC50 is under 500 nM.

As for `Cn1cc(-c2cn(C)c(=O)cc2-n2cccc2)cn1` [Example 83, 1-methyl-5-(1-methyl-1H-pyrazol-4-yl)-4-(1H-prrol-1-yl) pyridin-2(1H)-one], the IC50 was under 500 nM.

Consider `Cn1cc(-c2cn(C)c(=O)cc2-n2ccc(C(=O)O)c2)cn1` [Example 84, 1-(1-methyl-5-(1-methyl-1H-pyrazol-4-yl)-2-oxo-1,2-dihydro-pyridin-4-yl)-1H-pyrrole-3-carboxylic acid], for which the IC50 is under 500 nM. For the compound `Cn1cc(-c2cnn(Cc3ccccc3)c2)c(-n2ccc(C(N)=O)c2)cc1=O` [Example 85, 1-(5-(1-benzyl-1H-pyrazol-4-yl)-1-methyl-2-oxo-1,2-dihydropyridin-4-yl)-1H-pyrrole-3-carboxamide], the IC50 is under 500 nM. Take `Cn1cc(-c2cnn(CC3CC3)c2)c(-n2ccc(C(=O)O)c2)cc1=O` [Example 86, 1-(5-(1-(cyclopropylmethyl)-1H-pyrazol-4-yl)-1-methyl-2-oxo-1,2-dihydropyridin-4-yl)-1H-pyrrolc-3-carboxylic acid]: the IC50 was under 500 nM.

Take `Cn1cc(-c2cnn(Cc3ccccc3)c2)c(N2CCCC2)cc1=O` [Example 87, 5-(1-benzyl-1H-pyrazol-4-yl)-1-methyl-4-pyrrolidin-1-yl-1H-pyridin-2-one]: the IC50 is under 500 nM.

On to `Cn1cc(-c2cnn(Cc3ccccc3)c2)c(OCC(F)(F)F)cc1=O` [Example 91, 5-(1-benzyl-1H-pyrazol-4-yl)-1-methyl-4-(2,2,2-trifluoro-ethoxy)pyridin-2(1H)-one], for which the concentration for half-maximal inhibition (IC50) is under 500 nM. With `Cn1cc(-c2cnn(Cc3ccccc3)c2)c(OCCC(F)(F)F)cc1=O` [Example 92, 5-(1-benzyl-1H-pyrazol-4-yl)-1-methyl-4-(3,3,3-trifluoro-propoxy)pyridin-2(1H)-one], the 50% inhibitory concentration (IC50) was under 500 nM. Turning to `CNC(=O)[C@H]1CCN(c2cc(=O)n(C)cc2-c2cnn(Cc3ccccc3)c2)C1` [Example 93, 1-[5-(1-benzyl-1H-pyrazol-4-yl)-1-methyl-2-oxo-1,2-dihydro-pyridin-4-yl]-pyrrolidine-3-methylacetamide], the IC50 is under 500 nM. Same read-out and setting: for `CCOc1cc(=O)n(C)cc1-c1cnn2c1CCC2` [Example 95, 5-(5,6-dihydro-4H-pyrrolo[1,2-b]-pyrazol-3-yl)-4-ethoxy-1-methylpyridin-2(1H)-one] the value was under 500 nM. `CCOc1cc(=O)n(C)cc1-c1cnn(-c2ccccc2)c1` [Example 96, 4-ethoxy-1-methyl-5-(1-phenyl-1H-pyrazol-4-yl) pyridin-2(1H)-one]: the IC50 was under 500 nM.

On to `CCOc1cc(=O)n(C)cc1-c1cnn(-c2ccccc2Cl)c1` [Example 97, 5-(1-(2-chloro-phenyl)-1H-pyrazol-4-yl)-4-ethoxy-1-methyl-pyridin-2(1H)-one], for which the IC50 was under 500 nM. The same measure, in the same setting: for `CCOc1cc(=O)n(C)cc1-c1cnn(-c2c(Cl)cccc2Cl)c1` [Example 98, 5-(1-(2,6-dichlorophenyl)-1H-pyrazol-4-yl)-4-ethoxy-1-methyl-pyridin-2(1H)-one] the value was under 500 nM; for `CNNc1cc(=O)n(C)cc1-c1cnn(Cc2ccccc2)c1` [Example 99, 5-(1-benzyl-1H-pyrazol-4-yl)-1-methyl-4-(2-methyl-hydrazinyl)-pyridin-2(1H)-one], 500 to 5000 nM. For the compound `CCOc1cc(=O)n(C)cc1-c1cnn(C(C)c2ccc(-c3cnn(C)c3)cc2)c1` (centres unmarked) [Example 100, 4-ethoxy-1-methyl-5-(1-{1-[4-(1-methyl-1H-pyrazol-4-yl)-phenyl]-ethyl}-1H-pyrazol-4-yl)-1H-pyridin-2-one], the IC50 was under 500 nM.

`CCOc1cc(=O)n(C)cc1-c1cnn(Cc2ccc(C(C)C)cc2)c1` [Example 101, 4-ethoxy-5-[1-(4-isopropyl-benzyl)-1H-pyrazol-4-yl]-1-methyl-1H-pyridin-2-one]: the IC50 was under 500 nM. Take `CCOc1cc(=O)n(C)cc1-c1cnn(Cc2ccc(-c3cnn(C)c3)cc2)c1` [Example 102, 4-ethoxy-1-methyl-5-{1-[4-(1-methyl-1H-pyrazol-4-yl)-benzyl]-1H-pyrazol-4-yl}-1H-pyridin-2-one]: the IC50 was under 500 nM. Take `CCOc1cc(=O)n(C)cc1-c1cnn(Cc2ccc(-c3cn[nH]c3)cc2)c1` [Example 103, 4-ethoxy-1-methyl-5-{1-[4-(1H-pyrazol-4-yl)-benzyl]-1H-pyrazol-4-yl}-1H-pyridin-2-one]: the IC50 was under 500 nM.

As for `CCOc1cc(=O)n(C)cc1-c1cnn(Cc2cccc(Br)c2)c1` [Example 105, 5-(1-(3-bromo-benzyl)-1H-pyrazol-4-yl)-4-ethoxy-1-methyl-pyridin-2(1H)-one], the IC50 was under 500 nM. On the same count and under the same terms, for `Cn1cc(-c2cn(C)c(=O)cc2-c2ccccc2)cn1` [Example 107, 1-methyl-5-(1-methyl-1H-pyrazol-4-yl)-4-phenylpyridin-2(1H)-one] the value was under 500 nM; for `Cn1cc(-c2cc(=O)n(C)cc2-c2cnn(Cc3ccccc3)c2)cn1` [Example 108, 5-(1-benzyl-1H-pyrazol-4-yl)-1-methyl-4-(1-methyl-1H-pyrazol-4-yl)pyridin-2(1H)-one], under 500 nM; for `Cn1ccc(-c2cc(=O)n(C)cc2-c2cnn(Cc3ccccc3)c2)n1` [Example 109, 5-(1-benzyl-1H-pyrazol-4-yl)-1-methyl-4-(1-methyl-1H-pyrazol-3-yl)pyridin-2(1H)-one], 500 to 5000 nM.

Regarding `Cn1nccc1-c1cc(=O)n(C)cc1-c1cnn(Cc2ccccc2)c1` [Example 110, 5-(1-benzyl-1H-pyrazol-4-yl)-1-methyl-4-(1-methyl-1H-pyrazol-5-yl)pyridin-2(1H)-one], the IC50 lay in the range of 500 to 5000 nM. On to `Cc1cccc(-c2cc(=O)n(C)cc2-c2cnn(Cc3ccccc3)c2)c1` [Example 111, 5-(1-benzyl-1H-pyrazol-4-yl)-1-methyl-4-(m-tolyl)-pyridin-2(1H)-one], for which the IC50 is under 500 nM. With `Cc1ccc(-c2cc(=O)n(C)cc2-c2cnn(Cc3ccccc3)c2)cc1` [Example 112, 5-(1-benzyl-1H-pyrazol-4-yl)-1-methyl-4-(p-tolyl)pyridin-2(1H)-one], the IC50 was under 500 nM. `COc1cccc(-c2cc(=O)n(C)cc2-c2cnn(Cc3ccccc3)c2)c1` [Example 113, 5-(1-benzyl-1H-pyrazol-4-yl)-4-(3-methoxyphenyl)-1-methyl-pyridin-2(1H)-one]: the IC50 was under 500 nM. For the compound `Cn1cc(-c2cnn(Cc3ccccc3)c2)c(-c2ccn[nH]2)cc1=O` [Example 114, 5-(1-benzyl-1H-pyrazol-4-yl)-1-methyl-4-(1H-pyrazol-5-yl) pyridin-2(1H)-one], the IC50 is under 500 nM. Same read-out and setting: the figure for `Cn1cc(-c2cnn(Cc3ccccc3)c2)c(-c2cccs2)cc1=O` [Example 116, 5-(1-benzyl-1H-pyrazol-4-yl)-1-methyl-4-(thiophen-2-yl) pyridin-2(1H)-one] is under 500 nM; for `Cn1cc(-c2cnn(Cc3ccccc3)c2)c(-c2ccsc2)cc1=O` [Example 117, 5-(1-benzyl-1H-pyrazol-4-yl)-1-methyl-4-(thiophen-3-yl) pyridin-2(1H)-one] it is under 500 nM. As for `COc1ccc(-c2cc(=O)n(C)cc2-c2cnn(Cc3ccccc3)c2)cc1` [Example 120, 5-(1-benzyl-1H-pyrazol-4-yl)-4-(4-methoxyphenyl)-1-methyl-pyridin-2(1H)-one], the IC50 was under 500 nM. Regarding `Cn1cc(-c2cnn(Cc3ccccc3)c2)c(-c2cccnc2)cc1=O` [Example 122, 5′-(1-benzyl-1H-pyrazol-4-yl)-1′-methyl-[3,4-bipyridin]-2′(1′H)-one], the IC50 is under 500 nM. Turning to `Cn1cc(-c2cnn(Cc3ccccc3)c2)c(-c2ccncc2)cc1=O` [Example 124, 5-(1-benzyl-1H-pyrazol-4-yl)-1-methyl-[4,4′-bipyridin]-2(1H)-one], the IC50 is under 500 nM. On to `Cn1cc(-c2cnn(C3CCCCC3)c2)c(-c2ccccc2)cc1=O` [Example 125, 5-(1-cyclohexyl-1H-pyrazol-4-yl)-1-methyl-4-phenylpyridin-2(1H)-one], for which the IC50 is under 500 nM. As to `Cn1cc(-c2cnn(C3CCOCC3)c2)c(-c2ccccc2)cc1=O` [Example 126, 1-methyl-4-phenyl-5-(1-(tetrahydro-2H-pyran-4-yl)-1H-pyrazol-4-yl) pyridin-2(1H)-one], the IC50 is under 500 nM. In the case of `Cn1cc(-c2cnn(C3CCN(S(C)(=O)=O)CC3)c2)c(-c2ccccc2)cc1=O` [Example 127, 1-methyl-5-(1-(1-(methyl-sulfonyl)-piperidin-4-yl)-1H-pyrazol-4-yl)-4-phenylpyridin-2(1H)-one], the IC50 was under 500 nM. The same measure, in the same setting: for `Cn1cc(-c2cnn(-c3ccccc3)c2)c(-c2ccccc2)cc1=O` [Example 128, 1-methyl-4-phenyl-5-(1-phenyl-1H-pyrazol-4-yl) pyridin-2(1H)-one] the value was under 500 nM.
